Experimental data as given in US11524966B1 (Valo Early Discovery, Inc., priority 2017, dated 2022).

Target: T1, USP25 (USP25-His6, Boston Biochem E-546) (Homo sapiens, UniProt Q9UHP3)
T1 construct: His6; purchased Boston Biochem E-546
T1 sequence (Q9UHP3 1-1055): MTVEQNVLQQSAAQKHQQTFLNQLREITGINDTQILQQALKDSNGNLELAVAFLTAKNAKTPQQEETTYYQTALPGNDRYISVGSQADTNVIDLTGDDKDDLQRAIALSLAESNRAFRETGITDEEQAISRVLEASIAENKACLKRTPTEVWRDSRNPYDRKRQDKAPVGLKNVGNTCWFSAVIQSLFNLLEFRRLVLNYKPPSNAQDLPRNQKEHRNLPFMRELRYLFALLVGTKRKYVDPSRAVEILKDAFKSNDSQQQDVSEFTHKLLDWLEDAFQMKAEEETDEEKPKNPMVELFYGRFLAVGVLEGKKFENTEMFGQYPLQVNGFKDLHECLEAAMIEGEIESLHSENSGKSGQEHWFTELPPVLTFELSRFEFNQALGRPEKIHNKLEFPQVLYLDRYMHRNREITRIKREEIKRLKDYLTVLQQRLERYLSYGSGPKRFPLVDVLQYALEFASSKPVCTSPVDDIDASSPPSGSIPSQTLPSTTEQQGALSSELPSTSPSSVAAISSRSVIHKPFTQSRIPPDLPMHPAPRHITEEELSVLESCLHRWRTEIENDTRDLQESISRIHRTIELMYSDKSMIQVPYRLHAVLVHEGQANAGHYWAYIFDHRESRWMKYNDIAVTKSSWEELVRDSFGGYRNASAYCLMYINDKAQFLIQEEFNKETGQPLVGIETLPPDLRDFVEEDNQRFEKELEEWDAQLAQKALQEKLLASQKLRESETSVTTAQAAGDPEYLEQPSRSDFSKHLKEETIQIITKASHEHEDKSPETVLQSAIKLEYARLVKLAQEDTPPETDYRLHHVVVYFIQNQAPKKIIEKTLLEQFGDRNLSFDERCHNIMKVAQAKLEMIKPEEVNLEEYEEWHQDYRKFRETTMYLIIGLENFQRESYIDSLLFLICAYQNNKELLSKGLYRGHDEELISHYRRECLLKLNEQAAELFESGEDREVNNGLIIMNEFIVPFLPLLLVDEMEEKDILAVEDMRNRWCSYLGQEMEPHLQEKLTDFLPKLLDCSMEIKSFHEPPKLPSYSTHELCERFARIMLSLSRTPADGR
Test: Ubiquitin-Rhodamine 110 Assay for USP25 Activity, Example A-2
Assay type: biochemical
Settings: Ubiquitin-Rhodamine 110 assay, Example A-2; read-out: USP25 A-2 IC50 range
Method in brief: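 USP25-His6 (75 pM) was preincubated with compound (10-point, 3-fold series, 25 μM to 1.3 nM) for 30 min in 20 mM Tris-HCl pH 8.0, 3 mM BME, 0.03% BGG, 0.01% Triton X-100. Ub-Rh110 (25 nM, <<Km) was then added for 45 min at room temperature, citric acid-stopped, and fluorescence read at 485/535 nm.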

Row | SMILES | IC50 [nM]
1 | Cc1ccc2c(N)c(C(=O)N[C@H]3COc4cc(N5CC[C@@H]6CC[C@H](N)C[C@@H]65)ccc4C3)sc2n1 [Example 234, N-[(3R)-7-[(3aS,6S,7aS)-6-amino-octahydro-1H-indol-1-yl]-3,4-dihydro-2H-1-benzopyran-3-yl]-3-amino-6-methylthieno[2,3-b]pyridine-2-carboxamide] | 50 to 200
2 | CN[C@H]1CN(c2ccc3c(c2)OC[C@H](NC(=O)c2sc4nc(C)ccc4c2N)C3)C[C@@H]1OC [Example 212, 3-amino-N-[(3R)-7-[(3S,4S)-3-methoxy-4-(methylamino)pyrrolidin-1-yl]-3,4-dihydro-2H-1-benzopyran-3-yl]-6-methylthieno[2,3-b]pyridine-2-carboxamide] | 200 to 2000
3 | Cc1ccc2c(N)c(C(=O)N[C@H]3COc4cc(N5C[C@H](OC(C)C)[C@@H](N)C5)ccc4C3)sc2n1 [Example 202, 3-amino-N-[(3R)-7-[(3S,4S)-3-amino-4-(propan-2-yloxy)pyrrolidin-1-yl]-3,4-dihydro-2H-1-benzopyran-3-yl]6-methylthieno[2,3-b]pyridine-2-carboxamide] | 200 to 2000
4 | CO[C@H]1CN(c2ccc3c(c2)CC[C@H](NC(=O)c2cnc4c(c2)C2CC2CN4)C3)C[C@@H]1N (stereo partly drawn) [Example 188, N-[(2S)-6-[(3S,4S)-3-amino-4-methoxypyrrolidin-1-yl]-1,2,3,4-tetrahydronaphthalen-2-yl]-5H,6H,6aH,7H,7aH-cyclopropa[c]1,8-naphthyridine-2-carboxamide] | > 2000
5 | O=C(N[C@H]1CCc2cc(N3CC4CCC(C3)N4)cc(F)c2C1)c1cnc2c(c1)[C@H]1C[C@H]1CN2 [Example 192, (6aR,7aS)-N-[(2S)-6-{3,8-diazabicyclo[3.2.1]octan-3-yl}-8-fluoro-1,2,3,4-tetrahydronaphthalen-2-yl]-5H,6H,6aH,7H,7aH-cyclopropa[c]1,8-naphthyridine-2-carboxamide] | 50 to 200
6 | Cc1cc(C)c2c(N)c(C(=O)N[C@H]3COc4cc(N5CC[C@@H]6CNC[C@@H]65)ccc4C3)sc2n1 [Example 227, N-[(3R)-7-[(3aR,6aR)-octahydropyrrolo[2,3-c]pyrrol-1-yl]-3,4-dihydro-2H-1-benzopyran-3-yl]-3-amino-4,6-dimethylthieno[2,3-b]pyridine-2-carboxamide] | 50 to 200
7 | Cc1ccc2c(N)c(C(=O)N[C@H]3Cc4ccc(N5CCNCC5)nc4[C@H](C)C3)sc2n1 [Example 208, 3-amino-6-methyl-N-[(6R,8R)-8-methyl-2-(piperazin-1-yl)-5,6,7,8-tetrahydroquinolin-6-yl]thieno[2,3-b]pyridine-2-carboxamide] | 200 to 2000
8 | COC[C@@H]1CN(c2cc(F)c3c(c2)OC[C@H](NC(=O)c2sc4nc(C)ccc4c2N)C3)C[C@@H]1N [Example 250, 3-amino-N-[(3R)-7-[(3R,4R)-3-amino-4-(methoxymethyl)pyrrolidin-1-yl]-5-fluoro-3,4-dihydro-2H-1-benzopyran-3-yl]-6-methylthieno[2,3-b]pyridine-2-carboxamide] | 200 to 2000
9 | Cc1cc(C)c2c(N)c(C(=O)N[C@H]3CCc4nc(N5CC[C@@H]6CNC[C@@H]65)ccc4C3)sc2n1 [Example 219, N-[(6S)-2-[(3aR,6aR)-octahydropyrrolo[2,3-c]pyrrol-1-yl]-5,6,7,8-tetrahydroquinolin-6-yl]-3-amino-4,6-dimethylthieno[2,3-b]pyridine-2-carboxamide] | 50 to 200
10 | Cc1ccc2c(N)c(C(=O)N[C@H]3COc4cc(N5CCC[C@@H]6CNC[C@@H]65)ccc4C3)sc2n1 [Example 242, N-[(3R)-7-[(4aR,7aR)-octahydro-1H-pyrrolo[3,4-b]pyridin-1-yl]-3 ,4-dihydro-2H-1-benzopyran-3-yl]-3-amino-6-methylthieno[2,3-b]pyridine-2-carboxamide] | 50 to 200
11 | Cc1ccc2c(N)c(C(=O)N[C@H]3COc4cc(N5C[C@H](N)C(C)(C)C5)ccc4C3)sc2n1 [Example 214, 3-amino-N-[(3R)-7-[(4R)-4-amino-3,3-dimethylpyrrolidin-1-yl]-3,4-dihydro-2H-1-benzopyran-3-yl]-6-methylthieno[2,3-b]pyridine-2-carboxamide] | 50 to 200
12 | N#Cc1c(N2CC3CCC(C2)N3)cc(F)c2c1CC[C@@H](NC(=O)c1cnc3c(c1)[C@@H]1C[C@@H]1CN3)C2 [Example 197, (6aS,7aR)-N-[(2R)-5-cyano-6-{3,8-diazabicyclo[3.2.1]octan-3-yl}-8-fluoro-1,2,3,4-tetrahydronaphthalen-2-yl]-5H,6H,6aH,7H,7aH-cyclopropa[c]1,8-naphthyridine-2-carboxamide] | > 2000
13 | COC[C@@H]1CN(c2ccc3c(c2)CC[C@H](NC(=O)c2sc4nc(C)ccc4c2N)C3)C[C@@H]1N [Example 252, 3-amino-N-[(2S)-6-[(3R,4R)-3-amino-4-(methoxymethyl)pyrrolidin-1-yl]-1,2,3,4-tetrahydronaphthalen-2-yl]-6-methylthieno[2,3-b]pyridine-2-carboxamide] | 200 to 2000
14 | COC[C@H]1CN(c2cc(F)c3c(c2)OC[C@H](NC(=O)c2sc4nc(C)ccc4c2N)C3)C[C@H]1N [Example 251, 3-amino-N-[(3R)-7-[(3S,4S)-3-amino-4-(methoxymethyl)pyrrolidin-1-yl]-5-fluoro-3,4-dihydro-2H-1-benzopyran-3-yl]-6-methylthieno[2,3-b]pyridine-2-carboxamide] | 50 to 200
15 | Cc1ccc2c(N)c(C(=O)N[C@H]3COc4cc(N5CCO[C@H]6CNC[C@H]65)ccc4C3)sc2n1 [Example 184, N-[(3R)-7-[(4aR, 7aS)-octahydropyrrolo[3,4-b]morpholin-4-yl]-3,4-dihydro-2H-1-benzopyran-3-yl]-3-amino-6-methylthieno[2,3-b]pyridine-2-carboxamide] | 50 to 200
16 | Cc1cc(C)c2c(N)c(C(=O)N[C@H]3COc4cc(N5CC6CCC(C5)N6)c(C#N)c(F)c4C3)sc2n1 [Example 241, 3-amino-N-[(3R)-6-cyano-7-{3,8-diazabicyclo[3.2.1]octan-3-yl}-5-fluoro-3,4-dihydro-2H-1-benzopyran-3-yl]-4,6-dimethylthieno[2,3-b]pyridine-2-carboxamide] | 1 to 50
17 | CO[C@H]1CN(c2ccc3c(c2)OC[C@H](NC(=O)c2sc4nc(C)ccc4c2N)C3)C[C@@H]1NC(C)=O [Example 213, 3-amino-N-[(3R)-7-[(3S,4S)-3-acetamido-4-methoxypyrrolidin-1-yl]-3,4-dihydro-2H-1-benzopyran-3-yl]-6-methylthieno[2,3-b]pyridine-2-carboxamide] | 200 to 2000
18 | Cc1ccc2c(N)c(C(=O)N[C@H]3COc4cc(N5C[C@H]6NCCC(F)(F)[C@H]6C5)ccc4C3)sc2n1 [Example 238, N-[(3R)-7-[(4aS,7aS)-4,4-difluoro-octahydro-1H-pyrrolo[3,4-b]pyridin-6-yl]-3,4-dihydro-2H-1-benzopyran-3-yl]-3-amino-6-methylthieno[2,3-b]pyridine-2-carboxamide] | 200 to 2000
19 | Cc1ccc2c(N)c(C(=O)N[C@H]3COc4cc(N5CC[C@H]6CNC[C@H]65)cc(F)c4C3)sc2n1 [Example 220, N-[(3R)-7-[(3aS,6aS)-octahydropyrrolo[2,3-c]pyrrol-1-yl]-5-fluoro-3,4-dihydro-2H-1-benzopyran-3-yl]-3-amino-6-methylthieno[2,3-b]pyridine-2-carboxamide] | 50 to 200
20 | Cc1cc(C)c2c(N)c(C(=O)N[C@H]3COc4cc(N5CC[C@H]6CNC[C@H]65)cc(F)c4C3)sc2n1 (single isomer, unassigned) [Example 222] | 50 to 200
